# Measurements from patent publication US6803385B2, “Hydroxyeicosatetraenoic acid analogs and methods of their use in treating dry eye disorders” (Alcon, Inc., priority 1999, dated 2004).
# Tested on: rabbit model of dry eye (corneal staining)
# Test: Inhibition of corneal staining in a rabbit model of dry eye (ConA lacrimal gland inflammation plus desiccation, methylene blue uptake)
# Format: in vivo, New Zealand white rabbits
# Conditions: 1 μM, topical QID 50 μl, methylene blue corneal staining (A660) vs BSS vehicle
# Procedure: Compounds 173 and 175 were evaluated for their ability to inhibit corneal staining in a rabbit model of dry eye, as per the following experimental protocol.
# New Zealand white (NZA) rabbits (approximately 2.5 kg) were obtained from Myrtle's Rabbitry (Thompson Station, Tenn.). Animals were maintained in a controlled environment with a 12-hour on/off light cycle at 65±5° F. and at least 30% humidity. All aspects of animal handling, housing and experimentation conformed to the ARVO Statement for the Use of Animals in Ophthalmic and Vision Research.
# Rabbits were randomized and dosed topically QID with 50 μl of test article or BSS® solution beginning 24 hours prior to lacrimal gland injection. […]
# Desiccation was initiated three days following ConA injection by placing conscious rabbits into an environmental chamber (20%-30% humidity/75° F.). […] The concentration of the extracted dye was determined spectrophotometrically by measuring its absorbance at λ=660 nanometers (A660). Data are expressed as mean±standard deviation (S.D.). Percent inhibition was calculated as {1−[(A660test item−A660Normal)/(A660BSS−A660Normal)]}×100, where A660test item is the absorbance of dye from ConA-injected eyes dosed with the test item, A660Normal is the absorbance of dye from saline-injected eyes, and A660BSS is the absorbance of dye in ConA-injected eyes dosed with BSS® solution vehicle.
smiles,measurement,setting,value
"CCCCC[C@H](O)/C=C/C=C\C/C=C\C/C=C\CCCC(=O)O [Compound 15S-HETE, (15S)-(5Z,8Z,11Z,13E)-15-hydroxy-eicosa-5,8,11,13-tetraenoic acid]",% Inhibition ± S.D.,Experiment 1,70 ± 18%
same,% Inhibition ± S.D.,Experiment 2,77% ± 18%
